Holding throughout (assay): NCI anticancer screen, dose series, 48 h
In assay [1] the test system is OVCAR-5 ovarian.
The subject of assay [2] is LOX IMVI melanoma.
For assay [3], the system named is CAKI-1 renal.
The test system of assay [4] is ACHN renal.
For assay [5], the system named is CCRF-CEM leukemia.
Assay [6] has as its system NCI/ADR-RES ovarian.
Assay [7] has as its system T-47D breast.
Assay [8] deals with SNB-19 CNS.
The subject of assay [9] is SR leukemia.
For assay [10], the system named is K-562 leukemia.

Structures are written as SMILES. “And” between values parts separate entries of the source, which are not always exact repeats. Equal values may be shown once.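 Step 1: Grow cells in 96-well plates. Step 2: Expose to compound for 48 hours at 5 concentrations. Step 3: Interpolate endpoints linearly; if unreached, use highest concentration. At the GI50, growth is halved. TGI: total growth inhibition.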

As for `Cc1nc2cc(NC(=O)CN3CCN(CCN4C(=O)c5cccc6cccc(c56)C4=O)CC3)ccc2s1`, the GI50 in [1] was 14.1 µM; in assay [2], 4.15 µM; in assay [3], 4.32 µM; in assay [4], 3.5 µM; in assay [5], 2.94 µM; in assay [6], 4.05 µM. Besides, the GI50 in assay [7] was 3.07 µM; in [8], 6.23 µM; in assay [9], 1.19 µM. Besides, the TGI was more than 100 µM in assay [1]; 15.6 µM in [2]; more than 100 µM in assay [3]; 25 µM in assay [4]; 95.9 µM in [5]; 29.5 µM in assay [6]. The TGI was 17.9 µM in assay [7], 21.4 µM in assay [8] and more than 100 µM in assay [9].

As to `COC(=O)[C@@H](C)C[C@H](Cc1ccccc1)NC(=O)c1cccc([C@@H](C[C@H](C(C)C)N(C)C(=O)[C@@H](NC(=O)[C@H]2CCCCN2C)C(C)C)OC(C)=O)n1`, the GI50 is 0.00772 µM in [1]; less than 0.00167 µM in assay [10]; 0.00495 µM in [2]; 0.00173 µM in assay [3]; less than 0.00167 µM in assay [4]; 0.00203 µM in assay [5]. The GI50 in [6] is 0.152 µM; in [8], less than 0.00167 µM; in assay [9], less than 0.00167 µM. In addition, the TGI in [1], in assay [10], in assay [2], in assay [3], in assay [4] and in assay [5] was more than 16.7 µM in each case. Further, the TGI is more than 5.17 µM in assay [6], more than 16.7 µM in assay [8] and more than 16.7 µM in assay [9].

Take `COc1cc2c(c(OC)c1OC)-c1c(c3ccc([N+](=O)[O-])cc3c(=O)n1CCCN=[N+]=[N-])C2=O`: the GI50 was more than 100 µM in assay [1]; more than 100 µM in assay [10]; 28.5 µM in assay [2]; 50.3 µM in assay [3]; 14.1 µM in [4]; more than 100 µM in assay [5]. In addition, the GI50 in assay [6] is 45.3 µM; in assay [7], 34.8 µM; in assay [8] it was 29.7 µM. Further, the TGI was more than 100 µM in assay [1]; more than 100 µM in assay [10]; more than 100 µM in [2]; more than 100 µM in assay [3]; 39.6 µM in assay [4]; more than 100 µM in assay [5]. Moreover, the TGI is more than 100 µM in assay [6], more than 100 µM in assay [7] and 98.3 µM in [8].

In the case of `Oc1c(Br)cc(Br)c2cccnc12`, the GI50 was 6.21 µM in [1]; 2.94 µM in [2]; 2.29 µM in assay [3]; 3.48 µM in [4]; 2.63 µM in [5]; 2.82 µM in assay [6]. Moreover, the GI50 was 3.03 µM in assay [7], 3.99 µM in [8] and 3.07 µM in assay [9]. The TGI is 49.5 µM in assay [1]; 14.1 µM in [2]; 6.79 µM in assay [3]; 18.6 µM in assay [4]; 8.83 µM in assay [5]; more than 100 µM in assay [6]. The TGI is 18.4 µM in assay [7], more than 100 µM in assay [8] and 13.7 µM in assay [9].

For the compound `C[CH2][Ge]1([CH2]C)[CH2]CC2(CCN(CCCN(C)C)C2)C[CH2]1`, the GI50 in assay [1] was 1.84 µM and 2.45 µM; in [10] it was 0.237 µM and 1.11 µM; in assay [3] it was 1.61 µM and 3.04 µM; in assay [4] it was 1.84 µM and 1.7 µM; in assay [5] it was 0.709 µM and 1.4 µM; in assay [6], 1.83 µM and 5.51 µM. Also, the GI50 in assay [7] was 1.65 µM; in assay [8] it was 2.21 µM and 4.46 µM; in assay [9] it was 0.231 µM. For the same compound, the TGI in assay [1] is 3.8 µM and 5.19 µM; in assay [10], 2.36 µM and 5.13 µM; in assay [3], 3.31 µM and 8.49 µM; in assay [4], 3.66 µM and 3.95 µM; in [5], 2.33 µM and 2.44 µM; in assay [6], 4.58 µM and 13.4 µM. Besides, the TGI was 3.25 µM in assay [7]; 5.57 µM and 9.89 µM in assay [8]; 1.25 µM in assay [9].

For `C/C(=C1/N=C(c2ccccc2)OC1=O)c1cccs1`, the TGI in [1], in [10], in assay [2], in assay [3], in assay [4] and in assay [5] was more than 100 µM each time. Moreover, the TGI in assay [7], in [8] and in assay [9] was more than 100 µM each time.

Regarding `COc1ccc(C(=O)CC(Cl)=C(Cl)Cl)cc1`, the GI50 is 22.6 µM in assay [1]; 19.2 µM in assay [2]; 23.2 µM in assay [3]; 20.1 µM in assay [4]; 30.3 µM in assay [5]; 25.2 µM in [6]. Moreover, the GI50 is 26.2 µM in assay [7] and 32.4 µM in [8]. In addition, the TGI was 50.4 µM in [1]; 43.4 µM in [2]; 53.5 µM in assay [3]; 41.4 µM in assay [4]; more than 100 µM in assay [5]; 59.4 µM in [6]. The TGI in assay [7] is 61.9 µM; in [8], more than 100 µM.

Turning to `O=C1C2=C(Nc3cc([N+](=O)[O-])ccc3N2)OC1c1c[nH]c2ccc(COc3ccccc3)cc12` (configuration not stated), the TGI in [1], in [10], in assay [2], in assay [3], in assay [4] and in [6] was more than 100 µM each time. The TGI in assay [7], in [8] and in [9] was more than 100 µM throughout.

Consider `O=C(/C=C\c1ccc(Cl)c(Cl)c1)c1ccccc1`, for which the GI50 in assay [1] was 15.3 µM; in [10], 2.82 µM; in [2], 2.07 µM; in assay [3], 6.33 µM; in [4], 7.65 µM; in assay [5], 2.68 µM. Also, the GI50 in assay [6] was 5.49 µM; in [8], 10.6 µM; in assay [9], 2.75 µM. Further, the TGI in assay [1] stood at 31.3 µM; in assay [10], 8.1 µM; in assay [2] it was 4.48 µM; in assay [3], 19.3 µM; in [4], 20.5 µM; in assay [5], 8.78 µM. Besides, the TGI turned out to be 26.4 µM in assay [6], 23.6 µM in assay [8] and 9.22 µM in assay [9].

The values above are taken from PubChem BioAssay (NCI).
